# Data as given in ChEMBL document CHEMBL1131016, “Carbocyclic analogues of the potent cytidine deaminase inhibitor 1-(beta-D-ribofuranosyl)-1,2-dihydropyrimidin-2-one (zebularine)” (J Med Chem, 1998).
# Calls of active or inactive are those of the source. The calls are words filed in the database; no cut-off is given here.
# What was measured:
# [1] = target: T1, Cytidine deaminase (Homo sapiens, UniProt P32320); test: Compound was tested for its binding affinity against human cytidine deaminase;16-fold less potent than that of zebularine (16.5 uM)
# T1 sequence (P32320 whole entry): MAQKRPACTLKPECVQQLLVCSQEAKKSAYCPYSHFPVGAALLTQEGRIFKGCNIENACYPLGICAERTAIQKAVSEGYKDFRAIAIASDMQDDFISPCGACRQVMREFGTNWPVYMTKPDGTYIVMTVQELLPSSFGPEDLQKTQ
# [2] = target: T1, Cytidine deaminase; test: Inhibitory concentration of mouse or human Cytidine deaminase; No inhibition
SMILES,fold less potent than zebularine [1],inhibition [2]
O=c1ncccn1C1CC(CO)[C@@H](O)[C@H]1O (some centres not stated),16,–
"O=c1ncccn1[C@H]1[C@H](O)[C@H](O)C2(CO)C[C@H]12 (single isomer, unassigned)",–,inactive
